The subject of this experiment is BMDC/CD4+ T-cell cocultures. Nature of the experiment: T cell cytokine release in BMDC/T-cell cocultures. Particulars: BMDCs pretreated with 10 μM, CD4+ T cells, 72 h. It counts as cell-based, mouse. How it is done: To evaluate the adjuvant potential of the two most-promising desmuramylpeptides, 68 and 75, in terms of their effects on DC-mediated activation of CD4^+ and CD8^+ T cells, we used an in vitro antigen-presentation assay with C57BL/6 mouse bone-marrow-derived DCs (BMDCs). Following stimulation with 68 and 75 (1 or 10 μM) in the presence of ovalbumin soluble protein (50 μg/mL), BMDCs were cocultured with carboxyfluorescein succinimidyl ester (CFSE)-labeled naive ovalbumin-specific CD4^+ or CD8^+ T cells, which were isolated from splenocytes of OT II and OT I transgenic mice, respectively. After 3 days of coculture, CD25 (α subunit of IL-2 receptor)[108] expression was determined, along with the CFSE dilution, as markers of T-cell activation and proliferation, respectively. […]
Supernatants from CD4^+ and CD8^+ T cells after 72 h of co-incubation with BMDCs (pretreated with desmuramylpeptides [10 μM] and washed) were collected as described above. The cytokine concentrations were determined with the Cytometric Bead Array Mouse Th1/Th2/Th17 Cytokine Kit (contents: IL-2, IL-4, IL-6, IFN-γ, TNF, IL-17A, IL-10; BD Bioscience) on an Attune NxT flow cytometer (Thermo Fisher Scientific, Waltham, MA, U.S.A.). […] The data were analyzed using the FlowJo (Tree Star, Inc., Ashland, OR, U.S.A.) and Prism (GraphPad, San Diego, CA, U.S.A.) software. […]

Consider `COc1cc(/C=C/C(=O)NCC(=O)N[C@H](C(=O)N[C@H](CCC(=O)OC2CCCC2)C(=O)OC2CCCC2)C(C)C)ccc1O` [Compound 68, Dicyclopentyl ((E)-3-(4-Hydroxy-3-methoxyphenyl)acryloyl)glycyl-L-valyl-D-glutamate], for which the “Levels of IL-2, IL-6, IFN-γ, TNF-α and IL-17A in coculture supernatants” value is “elevated levels”; the “Levels of Th2-associated IL-4 and IL-10 in coculture supernatants” value is recorded as “unaffected levels”.

For the origin of these results see PMC8279416, “Structural Fine-Tuning of Desmuramylpeptide NOD2 Agonists Defines Their In Vivo Adjuvant Activity” (Journal of Medicinal Chemistry, 2021).
